Measurements taken from paper PMC6222509, “Dibasic Derivatives of Phenylcarbamic Acid against Mycobacterial Strains: Old Drugs and New Tricks?” (Molecules : A Journal of Synthetic Chemistry and Natural …, 2018).
≈ marks a conversion by molar mass, not a printed value. Read-outs that look alike come from different tables or passages of the source.

How the values were obtained:
[1] = tested on: M. kansasii DSM 44162 (MK DSM); experiment: in vitro antimycobacterial MIC, broth dilution micromethod in Middlebrook 7H9; type: cell-based; conditions: Mycobacterium kansasii, DSM 44162 / DSM 7, 168 h
[2] = tested on: M. smegmatis ATCC 700084 (MS); experiment: as above; type: cell-based, Mycobacterium smegmatis; conditions: Mycolicibacterium smegmatis, ATCC700084, 72 h
[3] = tested on: M. marinum CAMP 5644 (MM); experiment: as above; type: cell-based, Mycobacterium marinum
white mice = conditions: subcutaneous application; cited from earlier work
rabbit cornea = tested on: rabbit cornea; design: method as in PMID 8402965; conditions: 0.01 M cocaine as standard; cited from earlier work
guinea pig = tested on: guinea pig; design: method as in PMID 8402965; conditions: intradermal, 0.02 M procaine as standard; cited from earlier work
[4] = 7-day cultivation, 37 °C, read-out: MIC MK DSM 7-d
[5] = read-out: MIC MS 3-d, 3-day cultivation, 37 °C
[6] = Mycobacterium marinum, 504 h, 21-day cultivation, 28 °C, read-out: MIC MM 21-d
[7] = 3-day cultivation, 37 °C, read-out: MIC MS 3-d
[8] = read-out: MIC MK DSM 7-d, 7-day cultivation, 37 °C
[9] = Mycobacterium marinum, 504 h, read-out: MIC MM 21-d, 21-day cultivation, 28 °C

CCCCOc1ccccc1NC(=O)OC(CN(CCC)CCC)CN1CCCC1 (stereo not shown) [1a] gave an MIC [1, 4] of 53 µM (≈ 22.2 µg/mL), an MIC [2, 5] of 213 µM (≈ 89.4 µg/mL) and an MIC [3, 6] of 106 µM (≈ 44.5 µg/mL).

For CCCCCCOc1cccc(NC(=O)OC(CN(CCC)CCC)CN2CCCC2)c1 (stereo not shown) [1g], the MIC [1, 4] was 3.8 µM (≈ 1.7 µg/mL), the MIC [2, 7] was 15.4 µM (≈ 6.89 µg/mL) and the MIC [3, 6] was < 3.8 µM.

For CCCCCCOc1ccccc1NC(=O)OC(CN(CCC)CCC)CN1CCCC1 (stereo not shown) [1c], the MIC [1, 4] was 12.7 µM (≈ 5.69 µg/mL), the MIC [2, 7] was 51 µM (≈ 22.8 µg/mL) and the MIC [3, 6] was 25.5 µM (≈ 11.4 µg/mL). For the same molecule, the LD50 (white mice) was 600 mg/kg.

For CCCCCCCOc1cccc(NC(=O)OC(CN(CCC)CCC)CN2CCCC2)c1.Cl.Cl (stereo not shown) [1h, 1-[2-[({[3-(heptyloxy)phenyl]amino}carbonyl)oxy]-3-(dipropylammonio)propyl]pyrrolidinium dichloride], the MIC [1, 8] was 1.9 µM, the MIC [2, 5] was 15 µM and the MIC ([3]; 21-day cultivation, 28 °C, read-out: MIC MM 21-d) was <3.7 µM. The MIC [3, 9] was < 3.7 µM.

Work on CCCCCCOc1cccc(NC(=O)OC(CN(CCC)CCC)CN2CCCCCC2)c1.Cl.Cl (stereo not shown) [1o, 1-[2-[({[3-(hexyloxy)phenyl]amino}-carbonyl)oxy]-3-(dipropylammonio)propyl]azepanium dichloride] yielded an MIC [1, 8] of 3.6 µM, an MIC [2, 5] of 7.3 µM and an MIC [3, 9] of 7.3 µM.

In the case of CCCCOc1cccc(NC(=O)OC(CN(CCC)CCC)CN2CCCC2)c1 (stereo not shown) [1e], the MIC [1, 4] is reported as 16.2 µM (≈ 6.8 µg/mL), the MIC [2, 7] is reported as 16.2 µM (≈ 6.8 µg/mL) and the MIC [3, 6] is reported as 32.5 µM (≈ 13.6 µg/mL).

CCCCCCCOc1cccc(NC(=O)OC(CN(CCC)CCC)CN2CCCCCC2)c1.Cl.Cl (stereo not shown) [1p, 1-[2-[({[3-(heptyloxy)phenyl]amino}carbonyl)-oxy]-3-(dipropylammonio)propyl]azepanium dichloride] showed an MIC [1, 8] of 3.6 µM, an MIC [2, 5] of 7.1 µM and an MIC [3, 9] of 7.1 µM.

CCCCCOc1cccc(NC(=O)OC(CN(CCC)CCC)CN2CCCCCC2)c1.Cl.Cl (stereo not shown) [1n, 1-[2-[({[3-(pentyloxy)phenyl]amino}carbonyl)oxy]-3-(di-propylammonio)propyl]azepanium dichloride] showed an MIC [1, 8] of 7.5 µM, an MIC [2, 5] of 15 µM and an MIC [3, 9] of 15 µM.

Molecule CCCCCOc1ccccc1NC(=O)OC(CN(CCC)CCC)CN1CCCC1 (stereo not shown) [1b] has an MIC [1, 4] of 26.1 µM (≈ 11.3 µg/mL), an MIC [2, 7] of 104 µM (≈ 45.1 µg/mL) and an MIC [3, 6] of 52 µM (≈ 22.5 µg/mL).

Molecule CCCCOc1ccccc1NC(=O)OC(CN(CCC)CCC)CN1CCCCCC1 (stereo not shown) [1i] has an MIC [1, 4] of 51 µM (≈ 22.8 µg/mL), an MIC [2, 5] of 203 µM (≈ 90.9 µg/mL) and an MIC [3, 6] of 51 µM (≈ 22.8 µg/mL).

CCCCCCCOc1cccc(NC(=O)OC(CN(CCC)CCC)CN2CCCCCC2)c1.O=C(O)C(=O)O (stereo not shown) [1l, 1-[2-[({[3-(hept-yloxy)phenyl]amino}carbonyl)oxy]-3-(dipropylammonio)propyl]azepanium oxalate] gave an MIC [1, 4] of 382 µM, an MIC [2, 7] of 382 µM and an MIC [3, 6] of 191 µM.

Work on CCCCCCCOc1ccccc1NC(=O)OC(CN(CCC)CCC)CN1CCCC1.Cl.Cl (stereo not shown) [1d, 1-[2-[({[2-(heptyl-oxy)phenyl]amino}carbonyl)oxy]-3-(dipropylammonio)propyl]pyrrolidinium dichloride] yielded an MIC [1, 8] of 6.2 µM, an MIC [2, 5] of 24.9 µM and an MIC [3, 9] of 12.5 µM.

For CCCCCOc1cccc(NC(=O)OC(CN(CCC)CCC)CN2CCCC2)c1.Cl.Cl (stereo not shown) [1f, 1-[2-[({[3-(pentyloxy)phenyl]amino}carbonyl)oxy]-3-(dipropylammonio)propyl]-pyrrolidinium dichloride], the MIC [1, 8] was 7.9 µM, the MIC [2, 5] was 15.8 µM and the MIC [3, 9] was < 3.9 µM. The “Us, index of relative surface local anesthetic efficiency” value (rabbit cornea) was 130 and the “Ui, index of relative infiltration local anesthetic efficiency” value (guinea pig) was 250.

For CCCCCCOc1ccccc1NC(=O)OC(CN(CCC)CCC)CN1CCCCCC1 (stereo not shown) [1k], the MIC [1, 4] was 98 µM (≈ 46.6 µg/mL), the MIC [2, 7] was 390 µM (≈ 186 µg/mL) and the MIC [3, 6] was 98 µM (≈ 46.6 µg/mL).

CCCCCOc1ccccc1NC(=O)OC(CN(CCC)CCC)CN1CCCCCC1.O=C(O)C(=O)O (stereo not shown) [1j, 1-[2-[({[2-(Pentyloxy)phenyl]amino}carbonyl)oxy]-3-(dipropylammonio)propyl]-azepanium oxalate] showed an MIC [1, 8] of 50 µM, an MIC [2, 5] of 6.2 µM and an MIC [3, 9] of 50 µM.

For CCCCOc1cccc(NC(=O)OC(CN(CCC)CCC)CN2CCCCCC2)c1 (stereo not shown) [1m], the MIC [1, 4] was 7.7 µM (≈ 3.45 µg/mL), the MIC [2, 7] was 30.7 µM (≈ 13.7 µg/mL) and the MIC [3, 9] was 15.4 µM (≈ 6.89 µg/mL).
